Assay results reported in patent publication US8637521B2, “Substituted piperazin-2,5-diones and their use as multifunctional bioactive compounds” (priority 2006, dated 2014).
“And” between values parts separate entries of the source, which are not always exact repeats. Equal values may be shown once.

Assays:
antibodies to ovalbumin [1] = test: Adjuvant activity with ovalbumin immunization (Example 7); assay type: in vivo, mice; details: Table 6
Experimental: Adjuvant activity was tested on 6 groups of mice. Each group consisted of 5 animals. Three immunizations were performed as follows:
• 1. Mouse Nos. 1 to 5—Complete Freund's adjuvant (CFA=control) • 2. Mouse Nos. 6 to 10—ovalbumin (OVA egg) 25 micrograms per animal+adjuvant 100 micrograms per animal • 3. Mouse Nos. 11 to 15—ovalbumin 25 micrograms per animal+CFA • 4. Mouse Nos. 16 to 20—ovalbumin 25 micrograms per animal • 5. Mouse Nos. 21 to 25—ovalbumin 25 micrograms per animal+adjuvant 1 microgram per animal • 6. Mouse Nos. 26 to 30—ovalbumin 25 micrograms per animal+adjuvant 10 micrograms per animal Second Immunization:
The same set 21 days after first immunization by injection of 12.5 micrograms of ovalbumin/mouse to mouse nos. 6 to 30.
The same set 35 days after first immunization by injection of 12.5 microgram of ovalbumin/mouse to mouse nos. 6 to 30.
On day 42, blood samples from each mouse were collected. The stimulation index of each group was compared. The stimulation index was calculated by dividing the test pooled sera dilution yielding OD=1 by the dilution of pooled sera from mice immunized without the adjuvant, yielding OD=1.

Anti-OVA antibody titers = test: Adjuvant activity, anti-OVA antibody titers by ELISA (Example 8); assay type: in vivo, Balb/c mice; details: for Anti-protein antibody titer (pooled sera) / Stimulation index / Anti-protein antibody titer (for individual sera): Table 7
Experimental: Adjuvant activity was tested on 11 groups of Balb/c mice (obtained from Stolbovaya Breeding Station). Each group consisted of 7 animals. Three immunizations were performed as follows:
• Group 1—ovalbumin 25 micrograms per animal (Mouse Nos. 1 to 7) • Group 2—ovalbumin 25 micrograms per animal+CFA (Complete Freund's adjuvant) (Mouse Nos. 8 to 14) • Group 3—ovalbumin 25 micrograms per animal+adjuvant of compound 33a 100 micrograms per animal (Mouse Nos. 15 to 21) • Group 4—ovalbumin 25 micrograms per animal+adjuvant of compound 33a 10 micrograms per animal (Mouse Nos. […]) • Group 5—ovalbumin 25 micrograms per animal+adjuvant of compound 33a 1 microgram per animal (Mouse Nos. […]) • Group 6—ovalbumin 25 micrograms per animal+adjuvant of compound 33b 100 micrograms per animal (No. 36 to 42) • Group 7—ovalbumin 25 micrograms per animal+adjuvant of compound 33b 10 micrograms per animal (Mouse Nos. 43 to 49) • Group 8—ovalbumin 25 micrograms per animal+adjuvant of compound 33b 1 microgram per animal (Mouse Nos. 50 to 56) • Group 9—ovalbumin 25 micrograms per animal+adjuvant of compound 17 100 micrograms per animal (Mouse Nos. 57 to 63) • Group 10—ovalbumin 25 micrograms per animal+adjuvant of compound 1710 micrograms per animal (Mouse Nos. 64 to 70) • Group 11—ovalbumin 25 micrograms per animal+adjuvant of compound 171 microgram per animal (Mouse Nos. 71 to 77) Second Immunization:
The same set 14 days after first immunization by injection of 12.5 micrograms of ovalbumin/mouse to mouse nos. 1 to 77.
The same set 28 days after first immunization by injection of 12.5 micrograms of ovalbumin/mouse to mouse nos. 1 to 77.
On day 35 after first immunization, blood samples from each mouse were collected.
OVA (10 micrograms/ml) solution in 0.05 M sodium carbonate buffer (pH 9.5) was added to plate wells, 0.1 ml per well and incubated at 4° C. for 16 hours. The OVA solution was then removed and the plate was washed 4 times with PBS containing 0.05% Tween-20. Such washing was performed after each incubation stage. Serial twofold dilutions of sera (starting from 1:100 or 1:1000) were added to the wells, 0.1 ml per well and incubated at 37° C. for 1 hour followed by incubation (1 hour, 37° C.) with HRP-conjugated goat anti-mouse IgG antibodies (0.1 ml, 1 mg/ml in PBS) and then with a 0.1 mL substrate solution −0.05% H2O2 and 0.05% o-phenylene diamine in 0.05M sodium citrate buffer with a pH of 4.5. The reaction was stopped by adding 100 μl of 12.5% H2SO4. Absorbance was measured at a wavelength of 492 nm using a Multiscan Plus MKII (Flow Laboratories, Great Britain). Significant anti-protein antibody titer (for individual sera) was assessed as the serum dilution produced an absorbance value of more than 0.1 ODU and the minimum exceeds three times the control level. The antibody titer was presented and −log of dilution (FIGS. 2 and 3). The stimulation index for pooled sera was calculated by dividing the test pooled sera dilution producing OD=1 by the dilution of pooled sera from mice immunized without the adjuvant, producing OD=1. The results of the adjuvant activities of cyclo-L-Ala-L-Glu-(L-Trp-OH) (Compound 17), cyclo-L-Lys(N-acetyl-Glycosamine-N-acetyl-muramil)-L-Glu-(L-Trp-OH) (Compound 33a) and cyclo-D-Lys(N-acetyl-Glycosamine-N-acetyl-muramil)-D-Glu-(L-Trp-OH) (Compound 33b) are shown in Table 7 and the adjuvant activities of cyclo [L-Lys(Palmitoyil)-L-Glu(D-Trp-OH)] (Compound 26a) and cyclo [D-Lys(Palmitoyil)-D-Glu(D-Trp-OH)] (Compound 26b) are shown in Table 8 as well as in FIG. 4 which includes the results of the adjuvant activities of cyclo-L-Lys-L-Glu-(L-Trp-OH) (compound 19). It is noted that the peptides of compounds 26a and 26b are soluble in 0.1% NH4OH at a concentration of 1 mg per 1 to 2 ml.

antibodies to ovalbumin [2] = test: Adjuvant activity with ovalbumin immunization (Example 6); assay type: in vivo, mice (C57B16); details: for Stimulation index: Table 5, ovalbumin alone = 1.00
Experimental: Adjuvant activity was tested on 5 groups of mice (C57B16). Each group consisted of 5 animals. Three immunizations were performed:
• 1. Group with Complete Freund's Adjuvant (CFA) • 2. Group with ovalbumin (OVA egg) (25 micrograms/mouse) • 3. Group with CFA+ovalbumin (25 micrograms/mouse) • 4. Group with ovalbumin (25 micrograms/mouse)+peptide 1 microgram/mouse • 5. Group with ovalbumin (25 micrograms/mouse)+peptide 10 micrograms/mouse Second Immunization:
The same set 21 days after first immunization by injection of 12.5 micrograms of ovalbumin/mouse to groups 2-5.
The same set 35 days after first immunization by injection of 12.5 micrograms of ovalbumin/mouse to groups 2-5.
On day 42, the total blood from each mouse was collected. The blood was pooled from each group of mice. The stimulation index of each group was compared. The stimulation index was calculated as a ratio between optical density (OD=1) of diluted pools of groups 3-5 to the optical density (OD=1) of diluted pools of group 2 (control with no adjuvant).

[3] = system: hemopoietic precursor cells; test: Exogenous spleen colonies from bone marrow irradiated ex vivo with 1 Gy; assay type: in vivo
Experimental: In this study, the method of exogenous spleen colonies was applied. A suspension of intact bone marrow cells was irradiated ex vivo in the dose of 1 Gy. Different doses of Neogen or cyclic peptides were injected IP, 1M, subcutaneous or introduced per os to lethally irradiated recipients within an hour after the injection of irradiated bone marrow. Colonies were counted on day 8. All data in each group was the mean of three tests.

[4] = system: CFU-S population in the bone marrow; test: Spleen colony formation (CFU-S) by bone marrow cells of peptide-treated intact donor mice; assay type: in vivo, (CBA×C57 B1) F1 mice; details: Table 2, donor treated i/p
Experimental: The effect of tested substances on intact bone marrow was studied in vivo. […] Two days after administration of preparation, the mice were killed. Bone marrow suspension was prepared and injected intravenously to lethally irradiated mice. The colony forming activity was evaluated at day 8. Test animals were (CBA×C57 B1) F1 mice (30 mice per trial, average from 3 tests).

## C[C@@H]1NC(=O)[C@H](CCC(=O)N[C@@H](Cc2c[nH]c3ccccc23)C(=O)O)NC1=O [Compound 17, cyclo-L-Ala-L-Glu-(L-Trp-OH)]
Antibodies to ovalbumin [1]; adjuvant 1 microgram per animal
  Stimulation index: 1.18
Antibodies to ovalbumin [1]; adjuvant 10 micrograms per animal
  Stimulation index: 1.74
Antibodies to ovalbumin [1]; adjuvant 100 micrograms per animal, ovalbumin alone = 1.0
  Stimulation index: 1.14
Anti-OVA antibody titers; FIG. 4
  adjuvant activity (FIG. 4), doses at which active: active at 1, 10 and 100 μg/kg
Anti-OVA antibody titers; 1 μg per animal
  Anti-protein antibody titer (pooled sera): 4.8
  Stimulation index: 2.6
Anti-OVA antibody titers; 10 μg per animal
  Anti-protein antibody titer (pooled sera): 4.5
  Stimulation index: 1.9
Anti-OVA antibody titers; 100 μg per animal, no adjuvant 4.5
  Anti-protein antibody titer (pooled sera): 4.8
Anti-OVA antibody titers; 100 μg per animal, no adjuvant = 1
  Stimulation index: 2.3
Anti-OVA antibody titers; OVA + adjuvant 1 μg per animal, −log of dilution
  Anti-protein antibody titer (for individual sera): 5.1 (3×) and 4.2 and 4.5 (2×) and 5.4
Anti-OVA antibody titers; OVA + adjuvant 10 μg per animal, −log of dilution
  Anti-protein antibody titer (for individual sera): 4.8 and 4.2 and 4.1 and 4.5 (2×) and 5.4 and 3.9
Anti-OVA antibody titers; OVA + adjuvant 100 μg per animal, titer as −log of dilution, one value per mouse
  Anti-protein antibody titer (for individual sera): 4.5 and 4.2 (3×) and 5.1 (2×) and 4.8

## C[C@@H]1NC(=O)[C@H](CCC(=O)N[C@@H](Cc2c[nH]c3ccccc23)C(=O)[O-])NC1=O.[Na+] [cyclo-LAla-LGlu-(LTrp-ONa), cyclo-L-Ala-L-Glu-(L-Trp-ONa)]
Antibodies to ovalbumin [2]; ovalbumin + peptide 1 μg/mouse (group 4)
  Stimulation index: 1.18
Antibodies to ovalbumin [2]; ovalbumin + peptide 10 μg/mouse (group 5)
  Stimulation index: 1.74
Antibodies to ovalbumin [2]; matches stimulation index 1.74 at 10 μg/mouse
  increase of titers of antibodies to ovalbumin: 74%
[3]; 10 μg/kg IP, unirradiated 11.9 ± 0.4, 1 Gy alone 6.2 ± 0.6
  Colony count: 8.0 ± 0.4
[3]; 10 μg/kg IP, unirradiated = 100, 1 Gy alone = 0
  % stimulation: 67.2%
[3]; 100 μg/kg IP
  % stimulation: 80.7%
  Colony count: 9.6 ± 0.7
[3]; 100 μg/kg per/os
  % stimulation: 98.3%
  Colony count: 11.7 ± 0.6
[4]
  % suppression: 0%
[4]; control 11.2 ± 0.4, colonies day 8
  Colony count CFU-8 - S per 10^5 cells M ± M: 11.7 ± 0.8 per 10^5 cells
